Experimental data reported in patent publication US20130281467A1, “NOVEL MICROBICIDES” (SYNGENTA PARTICIPATIONS AG, priority 2010, published 2013).

Legend:
[1] = tested on: Mycosphaerella arachidis (Cercospora arachidicola); assay: Fungicidal activity against Mycosphaerella arachidis (Cercospora arachidicola) / liquid culture (early leaf spot); format: cell-based; settings: 4-5 days after application, read-out: disease control (inhibition of growth, photometrically)
Method: (§1) Fungicidal Activity Against Mycosphaerella arachidis (Cercospora arachidicola)/Liquid Culture (Early Leaf Spot) Conidia of the fungus from cryogenic storage were directly mixed into nutrient broth (PDB potato dextrose broth). After placing a (DMSO) solution of test compound into a microtiter plate (96-well format), the nutrient broth containing the fungal spores was added. The test plates were incubated at 24° C. and the inhibition of growth was determined photometrically 4-5 days after application.

[2] = tested on: Botryotinia fuckeliana (Botrytis cinerea); assay: Fungicidal activity against Botryotinia fuckeliana (Botrytis cinerea) / liquid culture (gray mould); format: cell-based; settings: 3-4 days after application, read-out: disease control (inhibition of growth, photometrically)
Method: as §1, with “Botryotinia fuckeliana (Botrytis cinerea)/Liquid” for “Mycosphaerella arachidis (Cercospora arachidicola)/Liquid”, “(Gray Mould)” for “(Early Leaf Spot)”, “(Vogels” for “(PDB potato dextrose”, “3-4” for “4-5”

[3] = tested on: Puccinia recondita f. sp. tritici; assay: Fungicidal activity against Puccinia recondita f. sp. tritici / wheat / leaf disc preventative (brown rust); format: in vivo; settings: foliar, wheat leaf segments, inoculated 1 day after application, compared to untreated, read-out: disease control
Method: Fungicidal Activity Against Puccinia recondita f. sp. tritici/Wheat/Leaf Disc Preventative (Brown Rust) Wheat leaf segments cv. Kanzler were placed on agar in multiwell plates (24-well format) and sprayed with the formulated test compound diluted in water. The leaf disks were inoculated with a spore suspension of the fungus 1 day after application. The inoculated leaf segments were incubated at 19° C. and 75% rh under a light regime of 12 h light/12 h darkness in a climate cabinet and the activity of a compound was assessed as percent disease control compared to untreated when an appropriate level of disease damage appears in untreated check leaf segments (7-9 days after application).

[4] = tested on: Blumeria graminis f. Sp. tritici (Erysiphe graminis f. sp. tritici); assay: Fungicidal activity against Blumeria graminis f. sp. tritici / wheat / leaf disc preventative (powdery mildew on wheat); format: in vivo; settings: foliar, wheat leaf segments, inoculated 1 day after application, compared to untreated, read-out: disease control
Method: Fungicidal Activity Against Blumeria graminis f. Sp. tritici (Erysiphe graminis f. sp. tritici)/Wheat/Leaf Disc Preventative (Powdery Mildew on Wheat)
Wheat leaf segments cv. Kanzler were placed on agar in a multiwell plate (24-well format) and sprayed with the formulated test compound diluted in water. The leaf disks were inoculated by shaking powdery mildew infected plants above the test plates 1 day after application. The inoculated leaf disks were incubated at 20° C. and 60% rh under a light regime of 24 h darkness followed by 12 h light/12 h darkness in a climate chamber and the activity of a compound was assessed as percent disease control compared to untreated when an appropriate level of disease damage appears on untreated check leaf segments (6-8 days after application).

[5] = tested on: Monographella nivalis (Microdochium nivale); assay: Fungicidal activity against Monographella nivalis (Microdochium nivale) / liquid culture (foot rot cereals); format: cell-based; settings: 4-5 days after application, read-out: disease control (inhibition of growth, photometrically)
Method: as §1, with “Monographella nivalis (Microdochium nivale)/Liquid” for “Mycosphaerella arachidis (Cercospora arachidicola)/Liquid”, “(Foot Rot Cereals)” for “(Early Leaf Spot)”

[6] = tested on: Glomerella lagenarium (Colletotrichum lagenarium); assay: Fungicidal activity against Glomerella lagenarium (Colletotrichum lagenarium) / liquid culture (anthracnose); format: cell-based; settings: Colletotrichum orbiculare, 3-4 days after application, read-out: disease control (inhibition of growth, photometrically)
Method: as §1, with “Glomerella lagenarium (Colletotrichum lagenarium)/Liquid” for “Mycosphaerella arachidis (Cercospora arachidicola)/Liquid”, “(Anthracnose)” for “(Early Leaf Spot)”, “measured” for “determined”, “3-4” for “4-5”

Pyrenophora teres = assay: Fungicidal activity against Pyrenophora teres / barley / leaf disc preventative (net blotch); format: in vivo; settings: foliar, barley leaf segments, inoculated 2 days after application, compared to untreated, read-out: disease control
Method: Fungicidal Activity Against Pyrenophora teres/Barley/Leaf Disc Preventative (Net Blotch) Barley leaf segments cv. Hasso were placed on agar in a multiwell plate (24-well format) and sprayed with the formulated test compound diluted in water. The leaf segments were inoculated with a spore suspension of the fungus 2 days after application. The inoculated leaf segments were incubated at 20° C. and 65% rh under a light regime of 12 h light/12 h darkness in a climate cabinet and the activity of a compound was assessed as disease control compared to untreated when an appropriate level of disease damage appears in untreated check leaf segments (5-7 days after application).

[7] = tested on: Phaeosphaeria nodorum (Septoria nodorum); assay: Fungicidal activity against Phaeosphaeria nodorum (Septoria nodorum) / wheat / leaf disc preventative (glume blotch); format: in vivo; settings: Parastagonospora nodorum, foliar, wheat leaf segments, inoculated 2 days after application, compared to untreated, read-out: disease control
Method: Fungicidal Activity Against Phaeosphaeria nodorum (Septoria nodorum)/Wheat/Leaf Disc Preventative (Glume Blotch) Wheat leaf segments cv. Kanzler were placed on agar in a multiwell plate (24-well format) and sprayed with the formulated test compound diluted in water. The leaf disks were inoculated with a spore suspension of the fungus 2 days after application. The inoculated test leaf disks were incubated at 20° C. and 75% rh under a light regime of 12 h light/12 h darkness in a climate cabinet and the activity of a compound was assessed as percent disease control compared to untreated when an appropriate level of disease damage appears in untreated check leaf disks (5-7 days after application).

Gaeumannomyces graminis = assay: Fungicidal activity against Gaeumannomyces graminis / liquid culture (take-all of cereals); format: cell-based; settings: 4-5 days after application, read-out: disease control (inhibition of growth, photometrically)
Method: as §1, with “Against Gaeumannomyces graminis/Liquid” for “Against Mycosphaerella arachidis (Cercospora arachidicola)/Liquid”, “Culture (Take-all of Cereals) Mycelial fragments” for “Culture (Early Leaf Spot) Conidia”, “spores iss” for “spores was”

[8] = tested on: Thanatephorus cucumeris (Rhizoctonia solani); assay: Fungicidal activity against Thanatephorus cucumeris (Rhizoctonia solani) / liquid culture (foot rot, damping-off); format: cell-based; settings: 3-4 days after application, read-out: disease control (inhibition of growth, photometrically)
Method: Fungicidal Activity Against Thanatephorus cucumeris (Rhizoctonia solani)/Liquid Culture (Foot Rot, Damping-Off) Mycelia fragments of a newly grown liquid culture of the fungus were directly mixed into nutrient broth (PDB potato dextrose broth). After placing a (DMSO) solution of the test compounds into a microtiter plate (96-well format), the nutrient broth containing the fungal material was added. The test plates were incubated at 24° C. and the inhibition of growth was determined photometrically 3-4 days after application.

[9] = tested on: Mycosphaerella graminicola (Septoria tritici); assay: Fungicidal activity against Mycosphaerella graminicola (Septoria tritici) / liquid culture (Septoria blotch); format: cell-based; settings: Zymoseptoria tritici, 4-5 days after application, read-out: disease control (inhibition of growth, photometrically)
Method: as §1, with “graminicola (Septoria tritici)/Liquid” for “arachidis (Cercospora arachidicola)/Liquid”, “(Septoria Blotch)” for “(Early Leaf Spot)”

melting point [°C] | Structure (SMILES) | inhibition at 200 ppm [1] [%] | inhibition at 200 ppm [2] [%] | pest or weed control at 200 ppm [3] [%] | pest or weed control at 200 ppm [4] [%] | inhibition at 200 ppm [5] [%] | inhibition at 200 ppm [6] [%] | pest or weed control at 200 ppm (Pyrenophora teres) [%] | pest or weed control at 200 ppm [7] [%] | inhibition at 200 ppm (Gaeumannomyces graminis) [%] | inhibition at 200 ppm [8] [%] | inhibition at 200 ppm [9] [%]
206 to 207 | N#Cc1cccc(Cc2cccc(-c3ncc4c(n3)CCOC4)n2)c1 [Compound 8] |  |  |  |  |  |  |  |  |  |  | 
213 to 215 | CO/N=C1\CCCc2nc(-c3cccc(Cc4ccccc4)n3)ncc21 [Compound 9] | ≥ 80 | ≥ 80 | ≥ 80 | ≥ 80 | ≥ 80 | ≥ 80 | ≥ 80 | ≥ 80 | ≥ 80 |  | 
239 to 241 | CO/N=C1\CC(C)(C)Cc2nc(-c3cccc(Cc4ccccc4OC)n3)ncc21 [Compound 10] |  |  |  |  |  |  |  |  |  |  | 
183 to 184 | CC1(C)CCc2cnc(-c3cccc(Cc4ccc(Cl)cc4)n3)nc2C1 [Compound 12] | ≥ 80 | ≥ 80 |  |  |  |  |  |  |  |  | 
272 to 273 | CC1(C)CCc2cnc(-c3cccc(Cc4ccccc4Cl)n3)nc2C1 [Compound 13] | ≥ 80 | ≥ 80 |  |  | ≥ 80 | ≥ 80 |  | ≥ 80 |  | ≥ 80 | ≥ 80
251 to 252 | COc1ccccc1Cc1cccc(-c2ncc3c(n2)CC(C)(C)CC3)n1 [Compound 14, 2-[6-(2-methoxybenzyl)-pyridin-2-yl]-7,7-dimethyl-5,6,7,8-tetrahydroquinazoline] | ≥ 80 | ≥ 80 |  |  | ≥ 80 | ≥ 80 | ≥ 80 |  | ≥ 80 | ≥ 80 | ≥ 80
259 to 260 | Cc1ccccc1Cc1cccc(-c2ncc3c(n2)CC(C)(C)CC3)n1 [Compound 15] | ≥ 80 | ≥ 80 |  |  | ≥ 80 | ≥ 80 | ≥ 80 | ≥ 80 |  | ≥ 80 | ≥ 80
219 to 220 | CC1(C)CCc2cnc(-c3cccc(Cc4cccc(Cl)c4)n3)nc2C1 [Compound 16] | ≥ 80 | ≥ 80 |  |  | ≥ 80 | ≥ 80 | ≥ 80 | ≥ 80 |  |  | ≥ 80
69 to 75 | O=C1CCCc2nc(-c3cccc(Cc4ccccc4)n3)ncc21 [Compound 20] | ≥ 80 | ≥ 80 |  |  |  | ≥ 80 |  |  | ≥ 80 |  | ≥ 80
286 to 288 | COc1ccc(OC)c(Cc2cccc(-c3ncc4c(n3)CCOC4)n2)c1 [Compound 22] |  | ≥ 80 | ≥ 80 | ≥ 80 |  | ≥ 80 | ≥ 80 | ≥ 80 | ≥ 80 |  | ≥ 80
 | COc1ccc(Cc2cccc(-c3ncc4c(n3)CCCCC4)n2)cc1 [Compound 35] | ≥ 80 | ≥ 80 | ≥ 80 | ≥ 80 | ≥ 80 | ≥ 80 | ≥ 80 | ≥ 80 | ≥ 80 | ≥ 80 | ≥ 80
 | COc1ccc(Cc2cccc(-c3ncc4c(n3)CC(C)(C)CC4)n2)cc1 [Compound 37] | ≥ 80 | ≥ 80 | ≥ 80 | ≥ 80 | ≥ 80 | ≥ 80 | ≥ 80 | ≥ 80 | ≥ 80 | ≥ 80 | ≥ 80
 | COc1ccc(Cc2cccc(-c3ncc4c(n3)CCCC4)n2)cn1 [Compound 41] | ≥ 80 | ≥ 80 | ≥ 80 | ≥ 80 | ≥ 80 | ≥ 80 | ≥ 80 | ≥ 80 | ≥ 80 | ≥ 80 | ≥ 80
 | COc1ccc(Cc2cccc(-c3ncc4c(n3)CC(C)(C)CC4)n2)cn1 [Compound 42] | ≥ 80 | ≥ 80 | ≥ 80 | ≥ 80 | ≥ 80 | ≥ 80 | ≥ 80 | ≥ 80 | ≥ 80 | ≥ 80 | ≥ 80
 | COc1ccc(C(C)c2cccc(-c3ncc4c(n3)CCCC4)n2)nc1 (centres unmarked) [Compound 44] | ≥ 80 | ≥ 80 | ≥ 80 | ≥ 80 | ≥ 80 | ≥ 80 | ≥ 80 | ≥ 80 | ≥ 80 | ≥ 80 | ≥ 80
